Measured values: patent US5200404A, “3-tetrazolylthiomethyl cephalosporin antibiotics” (ICI Pharma, priority 1990, dated 1993)
Values after ≈ are worked out from the molar mass of the structure shown. Where two headings read alike, the source gives them in different places.

What was measured:
[1] = test system: Ent. cloacae DR(A8401109); assay: MIC by agar-dilution, Diagnostic Sensitivity Test agar; assay type: cell-based; conditions: Enterobacter cloacae, inoculum 10^4 CFU/spot
Excerpt: (§1) The following results were obtained for Example 1 and two comparative compounds on a standard in vitro test system using Diagnostic Sensitivity Test agar medium. The antibacterial activity is described in terms of the minimum inhibitory concentration (MIC) determined by the agar-dilution technique with an inoculum size of 10^4 CFU/spot.

P. stuartii DR(A8382031) = assay: as above; assay type: cell-based; conditions: Providencia stuartii
Excerpt: as §1

[2] = test system: Strep. pneumoniae (A8671001); assay: as above; assay type: cell-based; conditions: Streptococcus pneumoniae
Excerpt: as §1

[3] = test system: E. coli JS3 RTEM(A8341135); assay: as above; assay type: cell-based; conditions: Escherichia coli
Excerpt: as §1

[4] = test system: Ent. cloacae DR(A8401108); assay: as above; assay type: cell-based; conditions: Enterobacter cloacae, inoculum 10^4 CFU/spot
Excerpt: as §1

[5] = test system: P. aeruginosa DR18SH(A81011020); assay: as above; assay type: cell-based; conditions: Pseudomonas aeruginosa
Excerpt: as §1

[6] = test system: Serr. marcesens (A8421003); assay: as above; assay type: cell-based; conditions: inoculum 10^4 CFU/spot
Excerpt: as §1

[7] = test system: Strep. pyogenes (A8681018); assay: as above; assay type: cell-based; conditions: Streptococcus pyogenes
Excerpt: as §1

[8] = test system: K. oxytoca D1^+ (A8395056); assay: as above; assay type: cell-based; conditions: Klebsiella oxytoca
Excerpt: as §1

[9] = test system: Pr. morganii DR(A8433062); assay: as above; assay type: cell-based; conditions: Morganella morganii, inoculum 10^4 CFU/spot
Excerpt: as §1

A. anitratus (A8322001) = assay: as above; assay type: cell-based; conditions: Acinetobacter calcoaceticus
Excerpt: as §1

[10] = test system: Serr. marcesens DR(A8421078); assay: as above; assay type: cell-based; conditions: inoculum 10^4 CFU/spot
Excerpt: as §1

Pr. morganii (A8433001) = assay: as above; assay type: cell-based; conditions: Morganella morganii, inoculum 10^4 CFU/spot
Excerpt: as §1

[11] = test system: Citro. freundii DR(A8382031); assay: as above; assay type: cell-based; conditions: Citrobacter freundii
Excerpt: as §1

[12] = test system: P. aeruginosa PU21(A8101028); assay: as above; assay type: cell-based; conditions: Pseudomonas aeruginosa
Excerpt: as §1

[13] = test system: Citro. freundii DR(A8382034); assay: as above; assay type: cell-based; conditions: Citrobacter freundii, inoculum 10^4 CFU/spot
Excerpt: as §1

E. coli DCO(A8341098) = assay: as above; assay type: cell-based; conditions: Escherichia coli, inoculum 10^4 CFU/spot
Excerpt: as §1

S. dublin (A8369001) = assay: as above; assay type: cell-based; conditions: Salmonella enterica
Excerpt: as §1

[14] = test system: P. aeruginosa 18S(A8101024); assay: as above; assay type: cell-based; conditions: Pseudomonas aeruginosa
Excerpt: as §1

[15] = test system: Ent. cloacae P99-(A8401054); assay: as above; assay type: cell-based; conditions: Enterobacter cloacae
Excerpt: as §1

half-life in marmosets = assay type: in vivo
Protocol: when dosed to marmosets at 3 mg/kg.

[16] = test system: Ent. cloacae P99+(A8401053); assay: MIC by agar-dilution, Diagnostic Sensitivity Test agar; assay type: cell-based; conditions: Enterobacter cloacae
Excerpt: as §1

In the case of `CC(C)(O/N=C(\C(=O)N[C@@H]1C(=O)N2C(C(=O)[O-])=C(C[n+]3ccccc3)CS[C@H]12)c1csc(N)n1)C(=O)O` [(B), ceftazidime, reference compound], the MIC [1] is reported as 32 mg/L (≈ 58.5 µM), the MIC (P. stuartii DR(A8382031)) is reported as 4 mg/L (≈ 7.32 µM) and the MIC [2] is reported as 0.125 mg/L (≈ 0.229 µM). It also gave an MIC [3] of 0.06 mg/L (≈ 0.11 µM), an MIC [4] of 32 mg/L (≈ 58.5 µM) and an MIC [5] of 16 mg/L (≈ 29.3 µM). The MIC [6] was 0.25 mg/L (≈ 0.457 µM), the MIC [7] was 0.125 mg/L (≈ 0.229 µM) and the MIC [8] was 0.5 mg/L (≈ 0.915 µM). It also gave an MIC [9] of 16 mg/L (≈ 29.3 µM), an MIC (A. anitratus (A8322001)) of 16 mg/L (≈ 29.3 µM) and an MIC [10] of 0.5 mg/L (≈ 0.915 µM). The MIC (Pr. morganii (A8433001)) was 0.06 mg/L (≈ 0.11 µM), the MIC [11] was 128 mg/L (≈ 234 µM) and the MIC [12] was 1 mg/L (≈ 1.83 µM). For the same molecule, the MIC [13] was 64 mg/L (≈ 117 µM), the MIC (E. coli DCO(A8341098)) was 0.125 mg/L (≈ 0.229 µM) and the MIC (S. dublin (A8369001)) was 0.125 mg/L (≈ 0.229 µM). The MIC [14] was 2 mg/L (≈ 3.66 µM) and the MIC [15] was 0.125 mg/L (≈ 0.229 µM).
With `CC(C)(O/N=C(\C(=O)NC1C(=O)N2C(C(=O)O)=C(CSc3nnnn3-c3cc(O)c(O)c(Cl)c3CC(=O)O)CS[C@H]12)c1csc(N)n1)C(=O)O` (stereo partly shown) [Example 1, 7-[2-(2-Aminothiazol-4-yl)-2-((Z)-1-carboxy-1-methylethoxyimino)acetamido]-3-[(1-(2-carboxymethyl-3-chloro-4,5-dihydroxyphenyl)tetrazol-5-yl)thiomethyl]ceph-3-em-4-carboxylic acid] the “half-life (t 1/2) compared with representative compounds of EP-A-272827” value (half-life in marmosets; in words) was “substantially and significantly longer”, the half-life (half-life in marmosets; marmoset, in vivo, 3 mg/kg) was 20.7 h and the MIC [1] was 0.125 mg/L (≈ 0.162 µM). The MIC (P. stuartii DR(A8382031); P. stuartii DR(A8382031), inoculum 10^4 CFU/spot, read-out: MIC) was 0.03 mg/L (≈ 0.039 µM), the MIC ([2]; Strep. pneumoniae (A8671001), inoculum 10^4 CFU/spot, read-out: MIC) was 0.03 mg/L (≈ 0.039 µM) and the MIC [3] was 0.001 mg/L (≈ 0.0013 µM). The MIC [4] was 0.25 mg/L (≈ 0.325 µM), the MIC ([5]; P. aeruginosa DR18SH(A81011020), inoculum 10^4 CFU/spot, read-out: MIC) was 0.016 mg/L (≈ 0.0208 µM) and the MIC [16] was 1 mg/L (≈ 1.3 µM). For the same molecule, the MIC [6] was 0.008 mg/L (≈ 0.0104 µM), the MIC ([7]; Strep. pyogenes (A8681018), inoculum 10^4 CFU/spot, read-out: MIC) was 0.5 mg/L (≈ 0.649 µM) and the MIC ([8]; K. oxytoca D1^+ (A8395056), inoculum 10^4 CFU/spot, read-out: MIC) was 0.004 mg/L (≈ 0.00519 µM). For the same molecule, the MIC [9] was 0.06 mg/L (≈ 0.0779 µM), the MIC (A. anitratus (A8322001); A. anitratus (A8322001), inoculum 10^4 CFU/spot, read-out: MIC) was 0.06 mg/L (≈ 0.0779 µM) and the MIC [10] was 0.008 mg/L (≈ 0.0104 µM). For the same molecule, the MIC (Pr. morganii (A8433001)) was 0.008 mg/L (≈ 0.0104 µM), the MIC ([11]; Citro. freundii DR(A8382031), inoculum 10^4 CFU/spot, read-out: MIC) was 0.25 mg/L (≈ 0.325 µM) and the MIC ([12]; P. aeruginosa PU21(A8101028), inoculum 10^4 CFU/spot, read-out: MIC) was 0.008 mg/L (≈ 0.0104 µM). It also gave an MIC [13] of 0.5 mg/L (≈ 0.649 µM), an MIC (E. coli DCO(A8341098)) of 0.002 mg/L (≈ 0.0026 µM) and an MIC (S. dublin (A8369001); S. dublin (A8369001), inoculum 10^4 CFU/spot, read-out: MIC) of 0.004 mg/L (≈ 0.00519 µM). It also gave an MIC ([14]; P. aeruginosa 18S(A8101024), inoculum 10^4 CFU/spot, read-out: MIC) of 0.004 mg/L (≈ 0.00519 µM) and an MIC ([15]; Ent. cloacae P99-(A8401054), inoculum 10^4 CFU/spot, read-out: MIC) of 0.125 mg/L (≈ 0.162 µM).
